Marks after values point to notes of the source that are not given here.
Legend:
[1] = system: Staphylococcus aureus NRS 17, GISA; experiment: Antibacterial MIC assay, Gram-positive panel; type: cell-based; settings: n=2
In short: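 MIC is defined here as the lowest concentration inhibiting growth by ≥80% relative to untreated bacteria. The assay used OD600 in CAMHB after an 18 h, 37 °C incubation at 5 × 10^5 CFU/mL. Compound was dosed in 2-fold steps with DMSO capped at 0.5–1% final.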

[2] = system: Staphylococcus aureus ATCC 25923, MSSA; experiment: Antibacterial MIC assay, Gram-positive panel; type: cell-based; settings: n=4
Excerpt: (§1) Bis(dimethyl-η4)-((1Z,1'E,5Z,5'E)-(1,1'-bi(cyclooctadiene))diplatinum(II) (Pt14) Smiles: C1C=CCCC(=CC1)C1=CCCC=CCC1.C[Pt]C.C[Pt]C
(§2) InChIKey: PHIWIZAHOBWKFJ-HPCBIOCFSA-N
(§3) Link to selected data that was repeated to approve the identity of the compounds: https://dx.doi.org/10.14272/PHIWIZAHOBWKFJ-HPCBIOCFSA-N.1
(§4) ATCC strains were sourced from the American Type Culture Collection and NRS strains from NARSA (Network on Antimicrobial Resistance in Staphylococcus aureus) via BEI Resources (www.beiresources.org), with clinical MSSA and MRSA isolates from Prof Graeme Nimmo, Queensland […]
(§5) Health Central Pathology. […]
(§6) Antibacterial minimum inhibitory concentration (MIC) assay
(§7) Compound Assay Plate Preparation: Compounds were dissolved in DMSO at 10mM (CO-ADD screening) or 4 mM (follow up screening) and were plated in a 2-fold dose response from 20 to 0.156 µM or 200 to 0.006 µM respectively, with a maximum of 0.5% or 1% DMSO, final in the assay […]
(§8) plated in a 2-fold dose response from 200 to 0.006 µM, with a maximum of 1 % DMSO, final in the assay concentration. (in-house screening)
(§9) For all the bacterial assays, each strain was cultured in Cation-adjusted Mueller Hinton broth (CAMHB; Bacto Laboratories 212322) at 37 °C overnight. A sample of each culture was then diluted 40-fold in fresh CAMHB and incubated at 37 °C for 1.5–3 h. The resultant mid-log phase cultures were diluted with CAMHB (CFU mL−1 measured by OD600), then added to each well of the compound-containing plates (384-well non-binding surface (NBS) plates; Corning CLS3640), giving a cell density of 5 × 10^5 CFU mL−1 and a total volume of 50 μL. Plates were covered and incubated at 37 °C for 18 h without shaking. Inhibition of bacterial growth was determined measuring absorbance at 600 nm (OD600), using media only as negative control and bacteria without inhibitors as positive control. MIC values were determined as the lowest concentration at which the growth was inhibited at ≥80%. Colistin sulfate (Sigma C4461) and vancomycin HCl (Sigma 861987) were used as internal controls on each plate for Gram-negative and Gram-positive bacteria, respectively. […]

[3] = system: Staphylococcus aureus VRS 1, VRSA (VanA); experiment: Antibacterial MIC assay, Gram-positive panel; type: cell-based; settings: n=4
Excerpt: as §1, §2, §3, §4, §5, §6, §7, §8, §9

[4] = system: E. coli lpxC (non‐efficient lipid A production mutant); experiment: MIC against E. coli membrane mutants; type: cell-based, Escherichia coli; settings: Table S2
Method: as §6
(§10) concentration. (in-house screening)
(§11) Bacto Laboratories 212322) at 37 °C overnight.
(§12) The resultant mid-log phase cultures were diluted
(§13) Gram-negative and Gram-positive bacteria, respectively.
(§14) final concentration range of 0.8 – 100 µM.
(§15) inhibitors as positive control. […]

[5] = system: E. coli tolC (efflux pump deficient); experiment: MIC against E. coli membrane mutants; type: cell-based, Escherichia coli; settings: Table S2
Method: as §6, §10, §11, §12, §13, §14, §15

[6] = system: Candida albicans ATCC 90028; experiment: Antifungal MIC (CO-ADD screening); type: cell-based
Method: as §2
(§16) Health Central Pathology. Candida albicans (ATCC 90028, NCCLS 11), Cryptococcus neoformans
as §6, §10, §11

[7] = system: Cryptococcus neoformans H99 ATCC 208821; experiment: Antifungal MIC (CO-ADD screening); type: cell-based
Method: as §2, §16, §6, §10, §11

[8] = system: S. aureus ATCC 43300 MRSA; experiment: MIC in the presence of human serum (serum reversal); type: cell-based, Staphylococcus aureus; settings: 50% serum
In short: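 MIC determination repeated in the presence of 10% or 50% human serum. Bacteria grown overnight at 37 °C, diluted from mid-log cultures, and tested at a final concentration range of 0.8–100 µM.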

[9] = system: B. subtilis ATCC 6051 type strain; experiment: as above; type: cell-based, Bacillus subtilis; settings: 10% serum
Excerpt: (§17) To obtain some initial insight into the apparent disparity between in vitro and in vivo results, we repeated the MIC experiments against four selected Gram‐positive strains in the presence of 10 % or 50 % human serum (Table S3). Pt1 and Pt2 maintained some antibacterial activity against B. subtilis in the presence of 10 % serum, but a complete loss of activity was observed against MRSA and GISA (50 % serum), and VRE (10 % serum). […] Systemic administration is therefore unlikely to be a suitable administration route for this class of compounds unless an alternative formulation that can prevent serum binding (e. g. by lipid or nanoparticle encapsulation) can be found. […] Further in vivo studies should therefore focus on more suitable disease models. […]
as §6, §10, §11, §12, §13, §14, §15

[10] = system: E. faecium ATCC 51559 MDR, VRE; experiment: as above; type: cell-based, Enterococcus faecium; settings: 10% serum
Excerpt: as §17, §6, §10, §11, §12, §13, §14, §15

[11] = system: Galleria mellonella larvae; experiment: In vivo toxicity in moth larvae; settings: for concentration without any toxicity in G. mellonella: 10 μL injected, five larvae per concentration, survival and health index over 96 hours, highest tested; for dosage without any toxicity in G. mellonella: equates to 0.4 mM, 10 μL injection
Method: Following a protocol previously reported by us we used larvae of the greater wax moth Galleria mellonella as a model organism for in vivo toxicity and efficacy.[20] […] Briefly, stock solutions of Pt1 and Pt2 were prepared in DMSO and diluted to final concentrations of 0.4 mM, 100 μM, 10 μM and 1 μM. […] For each concentration five larvae were injected with 10 μL and monitored for 96 hours for survival and health using the G. mellonella Health Index Scoring System.[22] […]
G. mellonella larvae were reared in controlled environmental room at Macquarie University, Sydney, Australia at 26 °C and 65% humidity with a 12-hours light/dark cycle. Larvae (~200 mg) were individually injected with 10 µL of chemical into the last right proleg using a 100 μL syringe (Hamilton Ltd). The […]
Each compound was dissolved in DMSO and diluted to final concentrations of 1 µM, 100 µM and 10 mM. We injected 5 larvae for each dilution of each compound.
Larvae injected with different dilutions of DMSO (10-1, 10-3 and 10-5) were included as negative controls.
Following injection, the larvae were incubated at 26 °C and monitored every 24 h for 4 days. Larval performance was assessed according to the G. mellonella Health Index Scoring System.[1] The experiments were repeated three separate times. […]

CCC1=CCCC=CCC1.[CH3][Pt][Cl] [Pt7]
MIC ([1]; Table S1 panel): 200 µM
MIC ([2]; Table S1 panel): > 200 µM
MIC ([3]; Table S1 panel): > 200 µM
MIC E. coli lpxC [4]: > 200 µM
MIC E. coli TolC [5]: > 200 µM
MIC Ca [6]: 10 µM
MIC Cn [7]: 20 µM
MIC in the presence of human serum [8]: > 200 µM
MIC in the presence of human serum [9]: > 200 µM
MIC in the presence of human serum [10]: > 200 µM

C1=CCC/C=C\CC1.[I][Pt][I] [Pt2, Pt(COD)I2]
MIC ([1]; Table 2 panel): 0.78–1.56^[b] μg/mL
MIC ([2]; Table 2 panel): 1.56–3.125^[a] μg/mL
MIC ([3]; Table 2 panel): 6.25^[a] μg/mL
MIC E. coli lpxC [4]: 100 µM
concentration without any toxicity in G. mellonella [11]: ≥ 400 µM
dosage without any toxicity in G. mellonella [11]: 9 to 11 mg/kg
MIC Ca [6]: 10 µM
MIC Cn [7]: 2.5 µM

C1=C\CC/C=C\CC/1.[Cl-].[Cl-].[Pt+2] [Pt1, Pt(COD)Cl2]
MIC ([2]; Table 2 panel): 3.125^[a] μg/mL
MIC ([3]; Table 2 panel): 12.5^[a] μg/mL
concentration without any toxicity in G. mellonella [11]: ≥ 400 µM
dosage without any toxicity in G. mellonella [11]: 6 to 7.5 mg/kg
MIC Ca [6]: 10 to 20 µM
MIC Cn [7]: 1.25 to 5 µM
